From patent US20190101551A1, “Real-time and Continuous Measurement in Vivo Using Aptamer-Based Biosensors” (The Regents of the University of California, priority 2016, published 2019)

Experiments:
in vivo = conditions: male, Sprague-Dawley, rat
Procedure: (§1) All in vivo measurements were performed using a two-electrode setup in which the reference and counter electrodes were a silver wire coated with a silver chloride film as described above. The measurements carried out in vivo were recorded using a handheld potentiostat.
(§2) In vivo Experiments Animals. Adult male Sprague-Dawley rats (300-500 g) were pair housed in a temperature and humidity controlled vivarium on a 12-h light-dark cycle and provided ad libitum access to food and water. All animal procedures were consistent with the guidelines of the NIH Guide for Care and Use of Laboratory Animals.
(§3) Surgery. For the anesthetized preparation, rats were anesthetized using isoflurane gas inhalation (2.5%) and monitored throughout the experiment using a pulse oximeter to measure heart rate and % SpO2 to insure depth of anesthesia. After exposing both ventral jugular veins, a simple catheter made from a [sequence] tube (Dow Corning, Midland, Mich., USA) fitted with a steel cannula was implanted into the left jugular vein. 0.1-0.3 mL of heparin (1000 U/mL) were immediately infused through the catheter to prevent blood clotting. The sensor was inserted into the right jugular vein and secured in place with surgical suture.
(§4) Measurements. A 30-minute sensor baseline was established before the first drug infusion. For anesthetized animals, a 3 mL syringe filled with the target drug was connected to the sensor-free catheter (placed in the jugular opposite that in which the sensor is emplaced) and placed in a motorized syringe pump. After establishing a stable baseline, the target drug was infused through this catheter at a rate of 0.2 mL/min. Target drugs included kanamycin (0.1 M solution), gentamicin (10 mg/mL), tobramycin (0.1 M solution), and doxorubicin (1.0 mM). After drug infusion, recordings were taken for up to 2 hours before the next infusion.
(§5) Sensors were fabricated using an aptamer recognizing the aminoglycoside antibiotics. Using these sensors, monotonically increasing intravenous doses of kanamycin were administered spanning the therapeutic ranges used in humans (10-30 mg/kg) and animals (25-30 mg/kg).
(§6) The pharmacokinetics of tobramycin were monitored following sequential 20 mg/kg intravenous injections conducted 2 hours apart in each of three rats.

[1] = Continuous real-time in vivo measurement of drug levels in blood with membrane-protected EAB sensors in the jugular vein of rats; conditions: anesthetized Sprague-Dawley rats, after each injection
Procedure: as §1, §2, §3, §4, §5, §6

[2] = male, Sprague-Dawley, rat, in vivo, iv
Procedure: as §1, §2, §3, §4, §5, §6

| Cmax (in vivo) | time to effective clearance of 90% of the drug from the circulatory system [1] | maximum concentrations depending on the delivered dose [2] | maximum concentration observed ([2]; 10 mg/kg) | SMILES |
| --- | --- | --- | --- | --- |
| ~600 nM | ≤ 50 min |  |  | COc1cccc2c1C(=O)c1c(O)c3c(c(O)c1C2=O)C[C@@](O)(C(=O)CO)C[C@@H]3O[C@H]1C[C@H](N)[C@H](O)[C@H](C)O1 [DOX, doxorubicin] |
|  |  | 34 to 400 µM | 200 µM | NC[C@H]1O[C@H](O[C@H]2[C@H](O)[C@@H](O[C@H]3O[C@H](CO)[C@@H](O)[C@H](N)[C@H]3O)[C@H](N)C[C@@H]2N)[C@H](O)[C@@H](O)[C@@H]1O [kanamycin] |
